The values below come from patent EP3272330A1, “COMPOSITION AND COSMETIC METHOD FOR REDUCING CELLULITE BLEMISHES” (Italfarmacia S.r.l., priority 2016, dated 2018).

One data set relates to adipose tissue. Briefly: Clinical study: histological analysis of adipose tissue after subcutaneous injection into areas with localized cellulite. The class given is in vivo, patient. The settings on record: surfactant added to ascorbate composition. The method, then: Step (c) Ten ml of diluents solution were used to reconstitute the mixture of sodium ascorbate and sodium chloride. Cosmetic Treatment: 5 ml of reconstituted solutions were given by subcutaneous injection into local areas with localized cellulite; lipolytic effect, adverse reactions and necrosis were evaluated by histological analysis.
The cosmetic treatment using the composition according to the invention was administered to a group of subjects who were well informed of the procedure; all gave their consent to the use of the results of the study for obtaining a patent grant. […]
A more specific and in-depth observation of the lower limbs was first made to assess, visually, the presence, location and extent of the irregularities of skin surface typical of cellulite. […] By photographic, thermographic and ultrasound instrumental investigations, the condition of each subject have been determined and classified according to a cellulite evaluation scale, ad hoc elaborated for the present study: • grade 0: exempt subjects; • grade 1: local skin rupture, characterized by few presence of irregular skin surface (madras skin or mattres phenomenon) with pit shaped introflexions; • grade 2: generalized skin rupture (skin roughness or orange peel skin). […]

The conditions of data set [1]: hydrophilic/lipophilic ratio; cited from earlier work.
The next data set deals with adipocytes. To be noted: concentration of 0.06% (3.3 mM); Gao Yan et al. 2009; cited from earlier work.
The conditions of data set [2]: also printed as 0.0176% to 0.176%; Sakagami H. et al. 1996; cited from earlier work.

Regarding `CCCCCCCCCCCCCCCC(=O)OC[C@H](O)[C@H]1OC(=O)C(O)=C1O` [Ascorbyl Palmitate, ascorbyl palmitate], the “ability of surfactants to determine the improvement of the lipolytic action of ascorbic acid salt” value in the data set with adipose tissue is reported as “particularly effective”. For the same compound, the HLB entry in data set [1] is listed as “HLB: 4-5”. `CCCCCCCC/C=C\CCCCCCCC(=O)OCC(O)CO` (stereo not drawn) [Glyceryl monooleate]: in data set [1], the HLB entry was “HLB: 2-3”. Turning to `O=C1O[C@H]([C@@H](O)CO)C(O)=C1O` [ascorbic acid], the “apoptotic damage and adipocytes decrease” value in the data set with adipocytes is “ineffective”. For the same compound, the “concentration range to induce an apoptotic effect” value in data set [2] is 1 to 10 mM.

As for Polysorbate 80, in data set [1], the HLB entry was “HLB: 10-12”.
